In US9113629B2, “4-amino-6-(4-substituted-phenyl)-picolinates and 6-amino-2-(4-substituted-phenyl)-pyrimidine-4-carboxylates and their use as herbicides” (DOW AGROSCIENCES LLC, priority 2013, dated 2015):
Like-named read-outs stand apart in the source and are kept apart here.

Tests used:
[1] = test system: Key Grass and Sedge Weeds as well as Grass Crops; experiment: Post-emergent Test II herbicidal activity (Table 6); format: in vivo; conditions: post-emergence, 336 h; for pest or weed control at 70 g/ha: 70 g ai/ha; for pest or weed control at 140 g/ha: 140 g ai/ha
In short: (§1)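 Compounds, dissolved in 97:3 acetone/DMSO and diluted into an aqueous carrier containing crop oil concentrate and Triton X-155, are applied over the top of young plants at 187 L/ha. Injury is scored visually at 14 d, 0% meaning no effect and 100% complete kill.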

[2] = test system: Key Broadleaf Weed and Crop Species; experiment: Post-emergent Test II herbicidal activity (Table 5); format: in vivo; conditions: post-emergence, 336 h, 14 days after application; for pest or weed control at 70 g/ha: application rate 70 g ai/ha; for pest or weed control at 140 g/ha: application rate 140 g ai/ha
In short: as §1

[3] = CYPES: yellow nutsedge (Cyperus esculentus), read-out: Visual Growth Reduction (%) 14 Days After Application, CYPES
[4] = DIGSA: crabgrass (Digitaria sanguinalis), read-out: Visual Growth Reduction (%) 14 Days After Application, DIGSA
[5] = ECHCG: barnyardgrass (Echinochloa crus-galli), read-out: Visual Growth Reduction (%) 14 Days After Application, ECHCG
[6] = ORYSA: rice (Oryza sativa), crop, read-out: Visual Growth Reduction (%) 14 Days After Application, ORYSA
[7] = SETFA: giant foxtail (Setaria faberi), read-out: Visual Growth Reduction (%) 14 Days After Application, SETFA
[8] = SORVU: grain sorghum (Sorghum vulgare), read-out: Visual Growth Reduction (%) 14 Days After Application, SORVU
[9] = TRZSS (wheat, Triticum aestivum), crop, read-out: Visual Growth Reduction (%) 14 Days After Application, TRZSS
[10] = ZEAMX: maize, corn (Zea mays), crop, read-out: Visual Growth Reduction (%) 14 Days After Application, ZEAMX
[11] = ABUTH: velvetleaf (Abutilon theophrasti), read-out: Visual Growth Reduction (%) 14 Days After Application, ABUTH
[12] = AMARE: redroot pigweed (Amaranthus retroflexus), read-out: Visual Growth Reduction (%) 14 Days After Application, AMARE
[13] = BRSNN: oilseed-rape, canola (Brassica napus), read-out: Visual Growth Reduction (%) 14 Days After Application, BRSNN
[14] = CHEAL: lambsquarters (Chenopodium album), read-out: Visual Growth Reduction (%) 14 Days After Application, CHEAL
[15] = EPHHL: wild poinsettia (Euphorbia heterophylla), read-out: Visual Growth Reduction (%) 14 Days After Application, EPHHL
[16] = HELAN: sunflower (Helianthus annuus), read-out: Visual Growth Reduction (%) 14 Days After Application, HELAN
[17] = VIOTR: wild pansy (Viola tricolor), read-out: Visual Growth Reduction (%) 14 Days After Application, VIOTR

melting point: 123 to 124 °C
SMILES: COC(=O)c1nc(-c2ccccc2)nc(N)c1OC [Compound 175]
pest or weed control at 70 g/ha [1, 3]: 0 to 29%
pest or weed control at 140 g/ha [1, 3]: 0 to 29%
pest or weed control at 70 g/ha [1, 4]: 0 to 29%
pest or weed control at 140 g/ha [1, 4]: 0 to 29%
pest or weed control at 70 g/ha [1, 5]: 0 to 29%
pest or weed control at 140 g/ha [1, 5]: 0 to 29%
pest or weed control at 70 g/ha [1, 6]: 0 to 29%
pest or weed control at 140 g/ha [1, 6]: 0 to 29%
pest or weed control at 70 g/ha [1, 7]: 0 to 29%
pest or weed control at 140 g/ha [1, 7]: 0 to 29%
pest or weed control at 70 g/ha [1, 8]: 0 to 29%
pest or weed control at 140 g/ha [1, 8]: 0 to 29%
pest or weed control at 70 g/ha [1, 9]: 0 to 29%
pest or weed control at 140 g/ha [1, 9]: 0 to 29%
pest or weed control at 70 g/ha [1, 10]: 0 to 29%
pest or weed control at 140 g/ha [1, 10]: 0 to 29%
pest or weed control at 70 g/ha [2, 11]: 45 to 59%
pest or weed control at 140 g/ha [2, 11]: 45 to 59%
pest or weed control at 70 g/ha [2, 12]: 45 to 59%
pest or weed control at 140 g/ha [2, 12]: 95 to 100%
pest or weed control at 70 g/ha [2, 13]: 0 to 29%
pest or weed control at 140 g/ha [2, 13]: 0 to 29%
pest or weed control at 70 g/ha [2, 14]: 0 to 29%
pest or weed control at 140 g/ha [2, 14]: 30 to 44%
pest or weed control at 70 g/ha [2, 15]: 85 to 94%
pest or weed control at 140 g/ha [2, 15]: 85 to 94%
pest or weed control at 70 g/ha [2, 16]: 45 to 59%
pest or weed control at 140 g/ha [2, 16]: 60 to 74%
pest or weed control at 70 g/ha [2, 17]: 0 to 29%
pest or weed control at 140 g/ha [2, 17]: 0 to 29%
